# Experiments:
# [1] = test system: TSLP secretion from human mast cells (HMC-1 cells); assay: TSLP secretion ELISA in PMACI-stimulated mast cells; type: cell-based; conditions: PMACI-stimulated HMC-1 cells, ELISA
# Experimental: (§1) (1) Cell culture: A human mast cell line (HMC-1) was cultured in an IMDM supplemented with 10% FBS at 37° C. and 5% CO2. Candidate materials were dissolved in DMSO, and then filtered using a 0.22 μm filter. The resulting candidate materials were diluted with DMSO and the HMC-1 cells were treated therewith.
# (3) Enzyme-linked immunosorbent assay (ELISA): Mast cells (3×10^6 cells/ml) were stabilized for 1 hour, and then treated with 0.1 μM, 1 μM, and 10 μM of candidate materials, followed by treatment with PMACI for 8 hours. The mast cells were centrifuged to obtain supernatants. To measure the amount of TSLP secreted from the cells, ELISA was used. The ELISA was performed in 96-well plates coated with 1 μg/well of TSLP capture Ab. The coated plates were washed twice with PBS. The cells were treated with PBS containing 10% FBS for 2 hours. Thereafter, the cells were washed with PBS containing 0.05% Tween-20 (Sigma), and recombinant TSLP was used to draw a standard curve. Subsequently, the plates were exposed to a biotinylated-TSLP antibody, Avidin peroxidase, an ARTS substrate containing 30% H2O2, and then measured at 405 nm.
# HMC-1 cells = assay: Cytotoxicity (MTT-assay) in HMC-1 cells; type: cell-based, human; conditions: 10 μM
# Experimental: as §1
# […] After culturing, the medium was replaced by a fresh medium, 5 mg/ml of an MTT solution was then added thereto, and the mast cells were incubated at 37° C. for 4 hours. 250 DMSO was added to the mast cells, MTT formazan was extracted therefrom, and absorbance of each well was measured at 540 nm using an ELISA reader.
# caspase-1 = molecular target: T1, caspase-1 (Homo sapiens, UniProt P29466); assay: Caspase-1 assay using HMC-1 cell extracts; type: cell-based
# T1 construct: a caspase-1 assay was conducted using cell extracts; endogenous in cells; host or cells: HMC-1 (human mast cells)
# T1 sequence (P29466 120-297 limits assumed): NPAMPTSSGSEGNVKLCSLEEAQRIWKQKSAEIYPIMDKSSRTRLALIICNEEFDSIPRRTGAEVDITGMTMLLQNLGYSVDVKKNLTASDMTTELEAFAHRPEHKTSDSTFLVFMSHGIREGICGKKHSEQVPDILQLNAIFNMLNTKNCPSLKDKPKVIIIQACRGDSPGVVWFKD
# T1 sequence (P29466 317-404 limits assumed): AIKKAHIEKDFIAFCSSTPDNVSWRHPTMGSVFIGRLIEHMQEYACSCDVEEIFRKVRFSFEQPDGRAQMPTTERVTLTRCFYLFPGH
# [2] = molecular target: T2, human recombinant caspase-1 (Homo sapiens, UniProt P29466); assay: Recombinant caspase-1 activity assay (kit); type: biochemical; conditions: caspase-1 assay kit
# T2 sequence (P29466 120-404): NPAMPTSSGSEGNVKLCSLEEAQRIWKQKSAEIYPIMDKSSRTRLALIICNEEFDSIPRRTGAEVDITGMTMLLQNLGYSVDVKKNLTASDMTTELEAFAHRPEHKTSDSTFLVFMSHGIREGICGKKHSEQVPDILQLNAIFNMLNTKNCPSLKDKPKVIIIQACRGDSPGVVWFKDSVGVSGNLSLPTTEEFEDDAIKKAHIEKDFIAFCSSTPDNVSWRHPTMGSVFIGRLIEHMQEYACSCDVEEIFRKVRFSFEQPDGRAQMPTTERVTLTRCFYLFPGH
# Experimental: (4) Caspase-1 assay: Recombinant caspase-1 and a drug were allowed to react, and then activity measurement was performed using a caspase-1 assay kit (R&D Systems Inc., Minneapolis, Minn., USA).
# Recombinant caspase-1 and a drug were allowed to react, and then activity was measured using a caspase-1 assay kit (R&D Systems Inc., Minneapolis, Minn., USA).
# HaCat cells = assay: Cytotoxicity (MTT-assay) in HaCat cells; type: cell-based, human
# Experimental: as §1, with “skin” for “mast”, “(HaCat cells)” for “(HMC-1)”, “RPMI containing” for “an IMDM supplemented with”, “HaCat” for “HMC-1”
# (2) Cytotoxicity (MTT-assay): After stabilizing HaCat cells (3×10^5 cells/ml) for 1 hour, they were treated with candidate materials variously beginning from a concentration of 10 μM, followed by treatment with Poly (I:C) for 8 hours. Then, the medium was replaced by a fresh medium, 5 mg/ml of an MTT solution was then added thereto, and the mast cells were incubated at 37° C. for 4 hours. 250 DMSO was added to the HaCat cells, MTT formazan was extracted therefrom, and absorbance of each well was measured at 540 nm using an ELISA reader.
# DSS-induced animal model = assay: DSS-induced inflammatory bowel disease (enteritis) model; type: in vivo, C57BL/6 mice
# Experimental: Six-week-old female SPF (Specific pathogen-free) C57BL/6 mice were purchased from DuPont Biotech. The mice were allowed to freely ingest a feed and water after an acclimation period of 1 week in an animal room of Hoseo University Safety Evaluation Center maintained at temperature of 21±3° C., humidity of 50±20%, and light/darkness cycle of 12 h/12 h. All procedures in the present animal experiment were conducted after approved by the Animal Experimental Ethics Committee of Hoseo University (HTRC-15-19, and HTRC-16-22(2)).
# Dextran sodium sulfate (cat no 160110 by Mpbio. corn) as a colitis inducer was diluted to 3% concentration in drinking water and orally administered to mice to induce enteritis. The mice were divided into 6 groups and DW was administered to the animals of a control, and 1.0 mg/kg and 10 mg/kg of the test material were orally administered to the animals of the experimental groups once a day for […]. Sulfasalazine (100 mg/kg) dissolved in crude olive oil was orally administered once a day to the animals of a positive control. In acute cases, disease progression levels were examined after 5 days of administration. In chronic cases, disease progression levels were examined 15 days and 30 days after the 5 days of administration (reference: Toxicology Reports 2 (2015) 10391045-Caryophyllene attenuates dextran sulfate sodium-induced colitis in mice via modulation of gene expression associated mainly with colon inflammation).
# Body weights were measured once for 5 days or more during the test period. The measured weights were quantified as 0 point if there was no difference compared with the normal control, 1 point for weight loss rate of 15%, 2 points for 510%, 3 points for 1015%, and 4 points for >15%. Feces observation was performed to examine the incidence of diarrhea, and the results thereof were quantified as scores (0, normal stool; 1, mildly soft stool; 2, very soft stool; 3, very soft stool (no regular shape); 4, watery stool).
# Rectal tissues and blood were collected from 5 individuals for each of the autopsy times. Yuhan ketamine 50® (Yuhan Corporation, Korean) and Rompun (Bayer, USA) were mixed in a ratio of 3:1, and then used to anesthetize animals via muscular injection. Each anesthetized animal was subjected to laparotomy to collect blood from the abdominal artery, and after blood collection, the abdominal artery was cut and subjected to venesection and death to collect rectal tissue. The length and weight of the collected tissue were measured to calculate weight per 1 cm of the tissue. Some of the collected tissues were used in biopsy, and some thereof were frozen in liquid nitrogen and stored at −70° C. before analysis. […]
# [3] = test system: balb/c mice with DNCB-induced atopic dermatitis; assay: DNCB-induced atopic dermatitis model; type: in vivo; conditions: 0.1% dexamethasone
# Text: (5) Reverse transcription-polymerase chain reaction (RT-PCR) quantitative real time PCR: Total RNA was isolated from cells and tissues, and cDNA was synthesized using a reverse transcriptase and was then reacted with cytokine primers to be analyzed, followed by PCR and real-time PCR. The RT-PCR products were subjected to electrophoresis using 1.5% agarose gel for analysis.
# A. Experimental animal: 5-week-old male BALB/c mice obtained from. Daehan Biolink (Eumseong, Chungbuk) were adapted for 2 weeks in a clean animal breeding room (small animal room #2-302) at Hoseo University Safety Evaluation Center, set under environmental conditions: temperature of 22±3° C.; relative humidity of 50±20%; ventilation frequency of 10 to 15 times/hour, illumination for 12 hours; and illuminance of 150 Lux to 300 Lux, and then used in an experiment.
# 4 experimental animals were accommodated in each of polycarbonate cages (270×500×200 mm, KYERYONG SCIENCE). Feed (5053-Picolab Rodent 20, PMI Nutrition International) and drinking water (ultraviolet sterilized filtered water) were allowed to ingest freely. All procedures of the experiment were conducted after approved by the Ethics Committee of the Hoseo University Safety Evaluation Center (HTRC-15-19).
# B. Dermatitis induction: Hairs on the back of each mouse were removed and maintained for 24 hours, and then 150 μl of a 1% 2,4-dinitrochlorobenzene(DNCB) solution (acetone: olive oil=3:1) was applied on the hair-removed site once a week for 3 weeks. After week 3, the DNCB solution was applied on the site twice a week for 3 weeks to induce atopic dermatitis.
# C. Treatment: Mice were divided into 6 groups, and 0.5% DMSO was applied on animals as a control and 200 μl of each of 0.01 μM, 0.1 μM, and 1 μM test material was applied on animals as experimental groups for 3 weeks. 50 μl of 0.1% dexamethasone dissolved in a crude alcohol was applied on animals as a positive control at intervals of 2 days.
# D. Biopsy: After application of the test material was completed, the dorsal skin of each experimental animal was incised under heart anesthesia, some of them were rapidly frozen using liquid nitrogen and stored at −70° C. before analysis, and the remainder was fixed with 10% neutral buffered formalin for 24 hours. The fixed tissues were prepared into slides through general tissue processing, and then subjected to hematoxylin & eosin (H&E) staining to measure the thickness of the epidermal layer. In addition, toluidine blue staining was performed to observe a quantitative change of mast cells. While the stained tissues were observed by an optical microscope, the thickness of the epidermal layer and the number of mast cells were obtained using an image analyzer (Olympus DP-21).
# E. IgE level measurement: IgE concentration in blood was measured by (SHIBAYAGI, Japan) using serum collected when autopsy was performed. 50 μL of an IgE standard solution and the sample were placed in antibody-attached 96 wells and allowed to react for 2 hours, and then 50 μL of a biotin-conjugated anti-IgE antibody solution was added to each well and allowed to react for 2 hours. Thereafter, the resulting sample was reacted with a HRP-avidin solution for 1 hour and a chromogenic substrate (TBM) reagent for 20 minutes, and the reaction was stopped using a reaction stopper. Absorbance of the sample was measured at 450 nm using ELISA (Molecular devices Emax).
smiles,measurement,setting,value
COc1ccc(NS(=O)(=O)c2cccc(S(=O)(=O)c3cccc(S(=O)(=O)Nc4ccc(OC)cc4)c3)c2)cc1 [IPS-07002],TSLP secretion from mast cells,[1],significantly inhibited
same,cytotoxicity (MTT-assay),HMC-1 cells,did not exhibit cytotoxicity
O=C([O-])CC(=O)NC12CC3CC(CC(C3)C1)C2.[Na+] [IPS-07003],TSLP secretion from mast cells,[1],significantly inhibited
same,cytotoxicity (MTT-assay),HMC-1 cells,did not exhibit cytotoxicity
[H]/N=C(\N/C(=N/[H])Nc1ccc(Cl)cc1)NC(C)C [IPS-07004],caspase-1 activity in HMC-1 cells,caspase-1,inhibits
same,recombinant caspase-1 activity,[2],inhibits
same,cytotoxicity (MTT-assay),HaCat cells,no cytotoxicity
same,"enteritis inhibitory activity (ratio of enteric weight to enteric length, wt/cm)","DSS-induced animal model; 10 mg/kg oral, compared to DSS control",superior enteritis inhibitory activity
same,melena,"DSS-induced animal model; compared to the DSS-induced group, oral",significantly decreased
"C[C@@H]1C[C@H]2[C@@H]3CCC4=CC(=O)C=C[C@]4(C)[C@@]3(F)[C@@H](O)C[C@]2(C)[C@@]1(O)C(=O)CO [dexamethasone, reference compound]",epidermal thickness,"[3]; DNCB group 87.1±13.0, normal 24.5±10.3",39.9±9.4 μm
same,blood IgE level,"[3]; DNCB group 790.0±151.8, no statistical significance",703.8±86.5
